Patent US20220117958A1, “COMPOSITIONS AND METHODS FOR INHIBITING ACSS2” (THE TRUSTEES OF THE UNIVERSITY OF PENNSYLVANIA, priority 2018, published 2022)
Converted amounts (≈) assume the structure as drawn. “And” between values parts separate entries of the source, which are not always exact repeats. Equal entries are not always repeated. Where two headings read alike, the source gives them in different places. Marks after values point to notes of the source that are not given here.

Tests used:
[1] = Microsomal stability assay (half-life), mouse; assay type: in vitro ADME; conditions: Mouse (CD1) microsomes, read-out: Microsomal stability T1/2
Text: (§1) Table 20 provides results of in vitro and in vivo pharmacokinetics performed for each of the represented compounds.

[2] = In vivo PK, IV dose, plasma; set-up: species or system Rat (SD); conditions: for Plasma concentration, mean / Plasma concentration, individual animal: IV 1 mg/kg
Text: as §1
(§2) Tables 4 and 5 depict the summary of rat plasma sample concentrations after administration of ADG I-204. FIG. 6 provides a summary of rat plasma and brain concentrations.

[3] = In vivo PK, oral gavage, plasma; set-up: species or system Rat (SD)
Text: as §1, §2

[4] = Protein binding via Rapid Equilibrium Dialysis - plasma; assay type: in vitro ADME; conditions: Rat (SD) plasma, 2 μM
Text: as §1

[5] = Microsomal stability assay (half-life), rat; assay type: in vitro ADME; conditions: Rat (SD) microsomes, read-out: Microsomal stability T1/2
Text: as §1

[6] = test system: H3K9ac; assay: Western blot, differentiated CAD cell lysates, H3K9ac levels; assay type: cell-based; conditions: differentiated CAD cells, DMSO = 100.00%
Text: as §1

[7] = Turbidity-based aqueous solubility; assay type: physicochemical; conditions: aqueous solution (composition not given), kinetic from dmso stock, read-out: highest soluble concentration
Text: as §1

[8] = Microsomal stability assay (half-life), human; assay type: in vitro ADME; conditions: Human microsomes, read-out: Microsomal stability T1/2
Text: as §1

[9] = In vivo PK, oral gavage, plasma; set-up: species or system Rat (SD); conditions: Rat, PO 5 mg/kg, BQL limit 1.00 ng/mL, listed as ADG I-206, 5 mg/kg
[10] = In vivo PK, IV dose, Terminal - brain (brain availability); set-up: species or system Rat (SD); conditions: for Brain concentration, mean / Brain concentration, individual animal: IV 1 mg/kg
Experimental: Table 3 and FIG. 5 depict the brain availability of ADG I-204, ADG I-205, ADG I-206, and ADG I-207 after IV administration of 1 mg/kg dose.

CNC(=O)Nc1ccc2nc(-c3cccs3)c(-c3cccs3)nc2c1 [ADG-206, 1-(2,3-di(thiophen-2-yl)quinoxalin-6-yl)-3-methylurea]
half-life at 2 μM [1]: 4.39 min | Plasma concentration, mean ([2]; Rat (SD), 8 hr, terminal, listed as ADG I-206, 1 mg/kg): 5 ng/mL | Plasma concentration, mean ([2]; Rat (SD), 24 hr, terminal, BQL limit 1.00 ng/mL (ADG I-205: 2.00 ng/mL)): BQL | Plasma concentration, individual animal ([2]; Rat, 0.0830 hr, terminal, third animal received only 70% of the test article, listed as ADG I-206, 1 mg/kg): 1500 ng/mL and 1160 ng/mL and 610*** ng/mL | Plasma concentration, individual animal ([2]; Rat, 0.500 hr, not terminal (animals 4, 5 and 6), listed as ADG I-206, 1 mg/kg): 7310** ng/mL and 527 ng/mL and 507 ng/mL | Plasma concentration, individual animal ([2]; Rat, 1.00 hr, terminal, listed as ADG I-206, 1 mg/kg): 177 ng/mL and 142 ng/mL | Plasma concentration, individual animal ([2]; Rat, 4.00 hr, terminal, BQL limit 1.00 ng/mL (ADG I-205: 2.00 ng/mL), listed as ADG I-206, 1 mg/kg): 4.19 ng/mL and 1.81 ng/mL | Plasma concentration, individual animal ([2]; Rat, 8.00 hr, terminal, BQL limit 1.00 ng/mL (ADG I-205: 2.00 ng/mL), listed as ADG I-206, 1 mg/kg): BQL and 1.44 ng/mL and 8.52 ng/mL | Plasma concentration, individual animal ([2]; Rat, 24.0 hr, terminal, BQL limit 1.00 ng/mL (ADG I-205: 2.00 ng/mL)): BQL | concentration at 0.083 h ([2]; SD, rat, plasma, iv, 1 mg/kg, Rat (SD), 0.083 hr, terminal, read-out: Plasma concentration, mean): 1090 ng/mL | concentration at 0.5 h ([2]; SD, rat, plasma, iv, 1 mg/kg, Rat (SD), 0.500 hr, not a terminal time point (animals 4, 5 and 6)): 2780 ng/mL | concentration at 1 h ([2]; SD, rat, plasma, iv, 1 mg/kg, Rat (SD), 1 hr, terminal, read-out: Plasma concentration, mean): 165 ng/mL | concentration at 4 h ([2]; SD, rat, plasma, iv, 1 mg/kg, Rat (SD), 4 hr, terminal, read-out: Plasma concentration, mean): 3 ng/mL | concentration at 8 h ([2]; SD, rat, plasma, iv, 1 mg/kg, Rat (SD), 8 hr, terminal, read-out: Plasma concentration, mean): 4.98 ng/mL | concentration at 1 h ([2]; SD, rat, plasma, iv, 1 mg/kg, Rat, 1.00 hr, terminal, read-out: Plasma concentration, individual animal): 176 ng/mL | Plasma concentration, mean ([3]; Rat (SD), PO 5 mg/kg, 24 hr, BQL = below quantitation limit (1.00 ng/mL)): BQL | Plasma concentration, individual animal ([3]; Rat, PO 5 mg/kg, 24.0 hr, BQL limit 1.00 ng/mL): BQL | concentration at 0.25 h ([3]; SD, rat, plasma, po, 5 mg/kg, Rat (SD), 0.25 hr, BQL = below quantitation limit (1.00 ng/mL), read-out: Plasma concentration, mean): 1.47 ng/mL | concentration at 0.5 h ([3]; SD, rat, plasma, po, 5 mg/kg, Rat (SD), 0.5 hr, BQL = below quantitation limit (1.00 ng/mL), read-out: Plasma concentration, mean): 2.32 ng/mL | concentration at 1 h ([3]; SD, rat, plasma, po, 5 mg/kg, Rat (SD), 1 hr, BQL = below quantitation limit (1.00 ng/mL), read-out: Plasma concentration, mean): 7.14 ng/mL | concentration at 4 h ([3]; SD, rat, plasma, po, 5 mg/kg, Rat (SD), 4 hr, BQL = below quantitation limit (1.00 ng/mL)): 12.8 ng/mL | concentration at 8 h ([3]; SD, rat, plasma, po, 5 mg/kg, Rat (SD), 8 hr, BQL = below quantitation limit (1.00 ng/mL), read-out: Plasma concentration, mean): 12.2 ng/mL | concentration at 0.25 h ([3]; SD, rat, plasma, po, 5 mg/kg, Rat, 0.250 hr, BQL limit 1.00 ng/mL, read-out: Plasma concentration, individual animal): 1.47 ng/mL | concentration at 0.5 h ([3]; SD, rat, plasma, po, 5 mg/kg, Rat, 0.500 hr, BQL limit 1.00 ng/mL, read-out: Plasma concentration, individual animal): 2.86 ng/mL | concentration at 1 h ([3]; SD, rat, plasma, po, 5 mg/kg, Rat, 1.00 hr, BQL limit 1.00 ng/mL, read-out: Plasma concentration, individual animal): 5.47 ng/mL | concentration at 8 h ([3]; SD, rat, plasma, po, 5 mg/kg, Rat, 8.00 hr, BQL limit 1.00 ng/mL, read-out: Plasma concentration, individual animal): 15.6 ng/mL | Protein binding, plasma: % Protein free [4]: 0.6565 % Protein free | half-life at 2 μM [5]: 6.36 min | H3K9ac levels normalized to H3 and DMSO control ([6]; 1 uM): 46.94% | H3K9ac levels normalized to H3 and DMSO control ([6]; 5 uM): 35.39% | H3K9ac levels normalized to H3 and DMSO control ([6]; 10 uM): 19.49% | H3K9ac levels normalized to H3 and DMSO control ([6]; 20 uM): 8.45% | H3K9ac levels normalized to H3 and DMSO control ([6]; 50 uM): 5.83% | H3K9ac levels normalized to H3 and DMSO control ([6]; 100 uM): 1.24% | solubility [7]: 5 µM (≈ 1.83 µg/mL) | half-life at 2 μM [8]: 43.3 min | Plasma concentration, individual animal ([9]; 0.250 hr): BQL | Plasma concentration, individual animal ([9]; 0.500 hr): 2.16 ng/mL and 1.93 ng/mL | Plasma concentration, individual animal ([9]; 1.00 hr): 9.00 ng/mL and 6.94 ng/mL | Plasma concentration, individual animal ([9]; 4.00 hr): 17.2 ng/mL and 8.32 ng/mL | Plasma concentration, individual animal ([9]; 8.00 hr): 8.89 ng/mL | Brain concentration, mean ([10]; Rat (SD), 1 hr, listed as ADG I-206, 1 mg/kg): 67 ng/g | Brain concentration, mean ([10]; Rat (SD), 4 hr, BQL limit 10.0 ng/g (204, 206), 20.0 ng/g (205, 207)): BQL | Brain concentration, mean ([10]; Rat (SD), 8 hr, BQL limit 10.0 ng/g (204, 206), 20.0 ng/g (205, 207)): BQL | Brain concentration, mean ([10]; Rat (SD), 24 hr, BQL limit 10.0 ng/g (204, 206), 20.0 ng/g (205, 207)): BQL | Brain concentration, individual animal ([10]; Rat, 0.0830 hr, third animal received only 70% of the test article, listed as ADG I-206, 1 mg/kg): 1080 ng/g and 1050 ng/g and 455*** ng/g | Brain concentration, individual animal ([10]; Rat, 1.00 hr, listed as ADG I-206, 1 mg/kg): 57.6 ng/g and 74.3 ng/g | Brain concentration, individual animal ([10]; Rat, 4.00 hr, BQL limit 10.0 ng/g (204, 206), 20.0 ng/g (205, 207)): BQL | Brain concentration, individual animal ([10]; Rat, 8.00 hr, BQL limit 10.0 ng/g (204, 206), 20.0 ng/g (205, 207)): BQL | Brain concentration, individual animal ([10]; Rat, 24.0 hr, BQL limit 10.0 ng/g (204, 206), 20.0 ng/g (205, 207)): BQL | concentration at 0.083 h ([10]; SD, rat, brain, iv, 1 mg/kg, Rat (SD), 0.083 hr): 862 ng/g | concentration at 1 h ([10]; SD, rat, brain, iv, 1 mg/kg, Rat (SD), 1 hr, read-out: Brain concentration, mean): 66.9 ng/g | concentration at 1 h ([10]; SD, rat, brain, iv, 1 mg/kg, Rat, 1.00 hr, read-out: Brain concentration, individual animal): 68.8 ng/g
